From patent US10858335B2 (Rigel Pharmaceuticals, Inc., priority 2014, dated 2020)
pIC50: −log10 of the molar value.

test system: GDF8 signaling (p-SMAD-3 (Ser423/425)); experiment: AlphaScreen SureFire SMAD3 (p-Ser423/425) assay, GDF8-stimulated cells (GDF pSMAD); format: cell-based; settings: Mus musculus, MPC-11, MPC11; GDF8-stimulated; p-SMAD3 AlphaScreen; read-out: GDF pSMAD (MPC11) (inhibition of GDF8 signaling)

| SMILES | pIC50 |
| --- | --- |
| Nc1nc2ccc(-c3cccnc3-c3ccc(F)c(Cl)c3)cn2n1 [compound 291, 6-(2-(3-Chloro-4-fluorophenyl)pyridin-3-yl)-[1,2,4]triazolo[1,5-a]pyridin-2-amine] | 5.91 |
| Cc1cc(-c2nc3c(cc2-c2ccc4ncsc4c2)NC(=O)CO3)ccc1F [compound 292, 7-(Benzo[d]thiazol-6-yl)-6-(4-fluoro-3-methylphenyl)-1H-pyrido[2,3-b] [1,4]oxazin-2(3H)-one] | 5.76 |
| Cc1cc(-c2nc3c(cc2-c2ccc4ncccc4c2)NC(=O)CO3)ccc1F [compound 293, 6-(4-Fluoro-3-methylphenyl)-7-(quinolin-6-yl)-1H-pyrido[2,3-b] [1,4]oxazin-2(3H)-one] | 5.26 |
| Nc1nccc2ccc(-c3cccnc3-c3ccc(F)c(Cl)c3)cc12 [compound 297, 7-(2-(3-Chloro-4-fluorophenyl)pyridin-3-yl)isoquinolin-1-amine] | 5.65 |
| Cc1cc(-c2ncccc2-c2ccc3ccnc(N)c3c2)ccc1F [compound 298, 7-(2-(4-Fluoro-3-methylphenyl)pyridin-3-yl)isoquinolin-1-amine] | 6.00 |
| Cc1cc(-c2nc3c(cc2-c2ccc4[nH]ncc4c2)N(C)CCO3)ccc1F [compound 300, 6-(4-Fluoro-3-methylphenyl)-7-(1H-indazol-5-yl)-1-methyl-2,3-dihydro-1H-pyrido[2,3-b][1,4]oxazine] | 4.89 |
| Nc1nc2ccc(-c3cccnc3-c3cccc(Cl)c3)nc2s1 [compound 301, 5-(2-(3-Chlorophenyl)pyridin-3-yl)thiazolo[5,4-b]pyridin-2-amine] | 6.46 |
| Nc1nc2ccc(-c3cccnc3-c3ccc(F)c(Cl)c3)nc2s1 [compound 302, 5-(2-(3-Chloro-4-fluorophenyl)pyridin-3-yl)thiazolo[5,4-b]pyridin-2-amine] | 6.10 |
| Cc1cc(-c2ncccc2-c2ccc3ncsc3n2)ccc1F [compound 303, 5-(2-(4-Fluoro-3-methylphenyl)pyridin-3-yl)thiazolo[5,4-b]pyridine] | 7.02 |
| Cc1cccc(-c2ncccc2-c2ccc3ncsc3n2)c1 [compound 304, 5-(2-(m-Tolyl)pyridin-3-yl)thiazolo[5,4-b]pyridine] | 7.07 |
| Fc1ccc(-c2ncccc2-c2ccc3ncsc3n2)cc1Cl [compound 305, 5-(2-(3-Chloro-4-fluorophenyl)pyridin-3-yl)thiazolo[5,4-b]pyridine] | 6.76 |
| Cc1cc(-c2ncc(NCc3cccnc3)cc2-c2ccc3ncsc3c2)ccc1F [compound 306, 5-(Benzo[d]thiazol-6-yl)-6-(4-fluoro-3-methylphenyl)-N-(pyridin-3-ylmethyl)pyridin-3-amine] | 6.89 |
| Cc1cc(-c2ncc(NCc3ccc(C(N)=O)cc3)cc2-c2ccc3nccnc3c2)ccc1F [compound 307, 4-(((6-(4-Fluoro-3-methylphenyl)-5-(quinoxalin-6-yl)pyridin-3-yl)amino)methyl)benzamide] | 5.65 |
| Cc1cc(-c2ncc(NCc3ccc(C#N)cc3)cc2-c2ccc3nccnc3c2)ccc1F [compound 308, 4-(((6-(4-Fluoro-3-methylphenyl)-5-(quinoxalin-6-yl)pyridin-3-yl)amino)methyl)benzonitrile] | 5.32 |
| Cc1cc(-c2ncc(NCc3ccc(C#N)cc3)cc2-c2ccc3ncsc3c2)ccc1F [compound 309, 4-(((5-(Benzo[d]thiazol-6-yl)-6-(4-fluoro-3-methylphenyl)pyridin-3-yl)amino)methyl)benzonitrile] | 5.83 |
| Cc1cc(-c2ncc(Nc3ccc(C(N)=O)cc3)cc2-c2ccc3ncsc3c2)ccc1F [compound 310, 4-((5-(Benzo[d]thiazol-6-yl)-6-(4-fluoro-3-methylphenyl)pyridin-3-yl)amino)benzamide] | 5.94 |
| Cc1cc(-c2ncc(Nc3ccncc3)cc2-c2ccc3ncsc3c2)ccc1F [compound 311, 5-(Benzo[d]thiazol-6-yl)-6-(4-fluoro-3-methylphenyl)-N-(pyridin-4-yl)pyridin-3-amine] | 5.33 |
